Laboratory results taken from patent US5834494A, “Pyridylcarbamoyl Indolines” (SmithKline Beecham p.l.c., priority 1993, dated 1998).

Experiment: Geller Seifter Procedure
Type: in vivo
Conditions: dose range 0.5-10 mg/kg p.o.; procedure of WO 94/04533
Protocol: The compound of example 2 was tested following the procedure outlined in WO 94/04533.

Cc1cc2c(cc1Cl)N(C(=O)Nc1cccnc1)CC2 [Example 2, 6-Chloro-5-methyl-1-(3-pyridycarbamoyl)indoline]
punished responding: significant increase in punished responding
